Test results taken from the CheMixHub viscosity set.

Assay: xn = mol fraction of the nth substance listed

CC(O)CO (stereo not drawn) + CS(C)=O
viscosity [mPa·s], 100 kPa
Settings | 293.15 K | 298.15 K | 303.15 K | 308.15 K | 313.15 K | 318.15 K
x1 = 0.0513 | 2.52 | 2.24 | 2.04 | 1.8 | 1.65 | 1.55
x1 = 0.1024 | 2.82 | 2.51 | 2.28 | 1.99 | 1.82 | 1.7
x1 = 0.1534 | 3.19 | 2.82 | 2.55 | 2.21 | 2.01 | 1.87
x1 = 0.2043 | 3.61 | 3.17 | 2.86 | 2.44 | 2.22 | 2.06
x1 = 0.255 | 4.08 | 3.54 | 3.19 | 2.72 | 2.46 | 2.27
x1 = 0.3056 | 4.63 | 4 | 3.58 | 3.02 | 2.72 | –
x1 = 0.356 | 5.31 | 4.56 | 4.03 | 3.38 | 3.04 | –
x1 = 0.4064 | 6.1 | 5.21 | 4.56 | 3.82 | 3.39 | –
x1 = 0.4566 | 7.04 | 5.93 | 5.17 | 4.28 | 3.8 | –
x1 = 0.5066 | 8.19 | 6.88 | 5.94 | 4.84 | 4.25 | –
x1 = 0.5565 | 9.53 | 7.93 | 6.78 | 5.52 | 4.8 | –
x1 = 0.6063 | 11.3 | 9.3 | 7.84 | 6.36 | 5.45 | –
x1 = 0.6556 | 13.5 | 11 | 9.26 | 7.35 | 6.26 | –
x1 = 0.7055 | 16.3 | 13.1 | 10.9 | 8.58 | 7.23 | –
x1 = 0.7549 | 19.9 | 15.8 | 12.8 | 10.1 | 8.38 | –
x1 = 0.8042 | 24.4 | 19 | 15.4 | 12 | 9.8 | –
x1 = 0.8533 | 30.1 | 23.2 | 18.5 | 14.3 | 11.5 | –
x1 = 0.9024 | 37.7 | 28.7 | 22.7 | 17.2 | 13.7 | –
x1 = 0.9512 | 47.5 | 35.5 | 27.6 | 20.7 | 16.2 | –

CC(O)CO (stereo not drawn) + O
Settings | viscosity [mPa·s]
293.15 K, 101 kPa, x1 = 0.0256 | 1.469
293.15 K, 101 kPa, x1 = 0.0558 | 2.125
293.15 K, 101 kPa, x1 = 0.092 | 3.14
293.15 K, 101 kPa, x1 = 0.1362 | 4.717
293.15 K, 101 kPa, x1 = 0.1913 | 6.665
293.15 K, 101 kPa, x1 = 0.2619 | 9.425
293.15 K, 101 kPa, x1 = 0.3556 | 14.17
293.15 K, 101 kPa, x1 = 0.4862 | 21.99
293.15 K, 101 kPa, x1 = 0.6804 | 35.18
298.15 K, 100 kPa, x1 = 0.2 | 5.452
298.15 K, 100 kPa, x1 = 0.4 | 12.77
298.15 K, 100 kPa, x1 = 0.6 | 21.63
298.15 K, 100 kPa, x1 = 0.8 | 32.85
298.15 K, 101 kPa, x1 = 0.197 | 5.634
298.15 K, 101 kPa, x1 = 0.3086 | 9.397
298.15 K, 101 kPa, x1 = 0.3774 | 12.17
298.15 K, 101 kPa, x1 = 0.4524 | 15.52
298.15 K, 101 kPa, x1 = 0.5109 | 18.22
298.15 K, 101 kPa, x1 = 0.5926 | 22.24
298.15 K, 101 kPa, x1 = 0.6898 | 27.16
298.15 K, 101 kPa, x1 = 0.8043 | 33.02
298.15 K, 101 kPa, x1 = 0.8747 | 36.98
298.15 K, 101 kPa, x1 = 0.9466 | 41.1
298.15 K, 101.3 kPa, x1 = 0.03 | 1.311
298.15 K, 101.3 kPa, x1 = 0.06 | 1.851
298.15 K, 101.3 kPa, x1 = 0.1 | 2.733
298.15 K, 101.3 kPa, x1 = 0.12 | 3.233
298.15 K, 101.3 kPa, x2 = 0.044 | 41.25
303.15 K, 101 kPa, x1 = 0.0101 | 0.902
303.15 K, 101 kPa, x1 = 0.02 | 1.022
303.15 K, 101 kPa, x1 = 0.0256 | 1.133
303.15 K, 101 kPa, x1 = 0.03 | 1.143
303.15 K, 101 kPa, x1 = 0.0399 | 1.282
303.15 K, 101 kPa, x1 = 0.0501 | 1.424
303.15 K, 101 kPa, x1 = 0.0558 | 1.572
303.15 K, 101 kPa, x1 = 0.0598 | 1.568
303.15 K, 101 kPa, x1 = 0.07 | 1.726
303.15 K, 101 kPa, x1 = 0.08 | 1.896
303.15 K, 101 kPa, x1 = 0.0899 | 2.059
303.15 K, 101 kPa, x1 = 0.092 | 2.236
303.15 K, 101 kPa, x1 = 0.1 | 2.246
303.15 K, 101 kPa, x1 = 0.1362 | 3.17
303.15 K, 101 kPa, x1 = 0.1913 | 4.481
303.15 K, 101 kPa, x1 = 0.2619 | 6.027
303.15 K, 101 kPa, x1 = 0.3556 | 8.744
303.15 K, 101 kPa, x1 = 0.4862 | 13.55
303.15 K, 101 kPa, x1 = 0.6804 | 21
303.15 K, 101 kPa, x2 = 0.97 | 1.143
308.15 K, 101 kPa, x1 = 0.0101 | 0.81
308.15 K, 101 kPa, x1 = 0.02 | 0.91
308.15 K, 101 kPa, x1 = 0.0399 | 1.13
308.15 K, 101 kPa, x1 = 0.0501 | 1.249
308.15 K, 101 kPa, x1 = 0.0598 | 1.373
308.15 K, 101 kPa, x1 = 0.07 | 1.499
308.15 K, 101 kPa, x1 = 0.08 | 1.642
308.15 K, 101 kPa, x1 = 0.0899 | 1.775
308.15 K, 101 kPa, x1 = 0.1 | 1.927
313.15 K, 101 kPa, x1 = 0.0101 | 0.732
313.15 K, 101 kPa, x1 = 0.02 | 0.82
313.15 K, 101 kPa, x1 = 0.0256 | 0.9114
313.15 K, 101 kPa, x1 = 0.03 | 0.907
313.15 K, 101 kPa, x1 = 0.0399 | 1.005
313.15 K, 101 kPa, x1 = 0.0501 | 1.105
313.15 K, 101 kPa, x1 = 0.0558 | 1.267
313.15 K, 101 kPa, x1 = 0.0598 | 1.213
313.15 K, 101 kPa, x1 = 0.07 | 1.315
313.15 K, 101 kPa, x1 = 0.08 | 1.437
313.15 K, 101 kPa, x1 = 0.0899 | 1.543
313.15 K, 101 kPa, x1 = 0.092 | 1.703
313.15 K, 101 kPa, x1 = 0.1 | 1.671
313.15 K, 101 kPa, x1 = 0.1362 | 2.278
313.15 K, 101 kPa, x1 = 0.1913 | 2.952
313.15 K, 101 kPa, x1 = 0.2619 | 4.008
313.15 K, 101 kPa, x1 = 0.3556 | 5.698
313.15 K, 101 kPa, x1 = 0.4862 | 8.384
313.15 K, 101 kPa, x1 = 0.6804 | 12.88
313.15 K, 101 kPa, x2 = 0.97 | 0.9218
318.15 K, 101 kPa, x1 = 0.0101 | 0.667
318.15 K, 101 kPa, x1 = 0.02 | 0.743
318.15 K, 101 kPa, x1 = 0.03 | 0.819
318.15 K, 101 kPa, x1 = 0.0399 | 0.904
318.15 K, 101 kPa, x1 = 0.0501 | 0.99
318.15 K, 101 kPa, x1 = 0.0598 | 1.078
318.15 K, 101 kPa, x1 = 0.07 | 1.168
318.15 K, 101 kPa, x1 = 0.08 | 1.268
318.15 K, 101 kPa, x1 = 0.0899 | 1.361
318.15 K, 101 kPa, x1 = 0.1 | 1.466
323.15 K, 100 kPa, x1 = 0.2 | 2.308
323.15 K, 100 kPa, x1 = 0.4 | 4.7
323.15 K, 100 kPa, x1 = 0.6 | 7.261
323.15 K, 100 kPa, x1 = 0.8 | 9.984
323.15 K, 101 kPa, x1 = 0.0101 | 0.611
323.15 K, 101 kPa, x1 = 0.02 | 0.678
323.15 K, 101 kPa, x1 = 0.0256 | 0.7514
323.15 K, 101 kPa, x1 = 0.03 | 0.744
323.15 K, 101 kPa, x1 = 0.0558 | 0.9714
323.15 K, 101 kPa, x1 = 0.092 | 1.282
323.15 K, 101 kPa, x1 = 0.1362 | 1.644
323.15 K, 101 kPa, x1 = 0.1913 | 2.138
323.15 K, 101 kPa, x1 = 0.2619 | 2.813
323.15 K, 101 kPa, x1 = 0.3556 | 3.891
323.15 K, 101 kPa, x1 = 0.4862 | 5.583
323.15 K, 101 kPa, x1 = 0.6804 | 8.332
